Measurements from PMC10906223 (JCI Insight, 2024).
“And” between values parts separate entries of the source, which are not always exact repeats. Identical values can stand only once.

How the values were obtained:
[1] = Microsomal stability assay, human liver microsomes; type: in vitro ADME; details: for Remaining in hepatic microsomes (100 at 0 min): human microsomes, Figure 5C; for Hepatic clearance: predicted from microsomal data
Experimental: (§1) A total of 445 μL of the working solution was transferred into prewarmed incubation plates for treated (T60) and control (NCF60) measurements. After preincubation (10 minutes at 37°C with constant shaking), 54 μL was transferred to the blank plate, followed by 6 μL of NADPH and 180 μL quenching solution. In parallel, 5 μL of WCDD301 (100 μM) was added into incubation plates (T60 and NCF60) containing microsomes and mixed thoroughly (3 times). For the NCF60 plate, 50 μL of buffer was added, mixed (thoroughly, 3 times), shaken, and incubated at 37°C for 60 minutes. In the quenching plate T0, quenching solution (180 μL) and NADPH cofactor (6 μL) were added. For T60 plate, 54 μL of the mixture was placed into the quenching plate (for T0 point), followed by adding 44 μL NADPH cofactor with shaking incubation at 37°C for 60 minutes. Quenching solution (180 μL) was added to quenching plates at 5, 15, 30, 45, and 60 minutes, and 60 μL of sample was transferred from T60 plate per time point to the quenching plates. For the NCF60 plates, 60 μL sample from the NCF60 incubation plate was transferred to the quenching plate (containing quenching solution) at the 60-minute time point. After plates were shaken for 10 minutes and centrifuged (1,750g, 20 minutes at 4°C), 80 μL of the supernatant was transferred into 240 μL HPLC water for LC-MS/MS analysis. The following first-order kinetic equation was used to calculate half-life (T1/2): [drawing 3]; when
(§2) Then, intrinsic clearance [CLint (microsomal; mic)] and hepatic clearance [CLint (liver)] were predicted using the following equations ([66]): […]

[2] = Microsomal stability assay, CD-1 mouse liver microsomes; type: in vitro ADME; details: for Remaining in hepatic microsomes (100 at 0 min): mouse microsomes, Figure 5D; for Hepatic clearance: mouse, predicted from microsomal data
Experimental: as §1, §2

[3] = test system: murine dispersed islet cells; experiment: Glucagon secretion from murine dispersed islet cells; type: cell-based, mouse; details: for Secretion of glucagon: Rhy (2.5 µM) alone, listed as Rhy
Experimental: (§3) Pancreata of nondiabetic C57BL/6J mice were digested using collagenase P (Roche Diagnostics, catalog 11213873001), and islets were manually picked up using a stereomicroscope (ZEISS Stemi 305). […] Isolated mouse islets or provided human islets were dispersed as described ([28]). Briefly, 100–120 islets were washed 2 times using modified HBSS, then dispersed in 600 μL Accutase (Innovative Cell Technologies, catalog AT-104) by gently pipetting up and down for 7 minutes at 37°C. […] Following refreshing of KRBH, cells were dispensed in 8 microfuge tubes (2,000 cells/tube) and treated with WCDD301, preclustered Ephrin-A5 Fc, or preclustered Fc in the presence or absence of the competitive inhibitor of EphA4 receptor, rhyncophylline ([60]) (MilliporeSigma, catalog SML2345). In the presence or absence of these effectors, secretion assay was performed sequentially as shown in Supplemental Table 5. […] Preclustering of Ephrin-A5 Fc was done by mixing Ephrin-A5 Fc or Fc alone (BioLegend, catalog 790102) with anti-Fc antibody (Invitrogen, catalog A16086) (1:10 molar ratio) 20 minutes before treatment ([62]). […] Shedding of cleaved EphA4 was measured from the cell culture medium. Experiments were performed by dispersion of 200 islets, and EphA4 levels in media were measured by EphA4 ELISA (ABclonal, catalog RK06572).

[4] = test system: human donor dispersed islet cells; experiment: Glucagon secretion from healthy human donor dispersed islet cells; type: cell-based; details: human α cells; range of concentrations; Supplemental Figure 1A
Experimental: as §3
The Integrated Islet Distribution Program provided us human donor islets with their characteristics (Supplemental Table 6). Islets were centrifuged at 500g for 3 minutes, resuspended in CMRL 1066 medium (Gibco, catalog 1150-037) containing 11 mM glucose, and rested in an incubator overnight.
For the hormone secretion assay, islets or dispersed islet cells were adapted in KRBH buffer containing 11 mM glucose for 1 hour. Then, after 2 washes in HBSS containing 11 mM glucose, islets or cells were treated in the following sequential order in the presence or absence of WCDD301: incubation in KRBH (1 mM glucose, 30 minutes) followed by medium collection, incubation in KRBH (11 mM glucose, 30 minutes) followed by medium collection.

[5] = Plasma stability assay, human plasma; type: in vitro ADME; details: for Ln (% Remaining): human plasma, 37°C, Figure 5A
Experimental: (§4) Pooled frozen plasma of CD-1 mice (n = 20; catalog MSE00PLK2M2N, Beijing Vital River Laboratory Animal Technology) or humans (n = 6, catalog […]2P2N, Bioreclamation IVT), equal numbers of males and females, was thawed in a 37°C water bath, and residual clots were removed by centrifugation (500g for 5 minutes). Plasma (98 μL) was aliquoted in each well of 96-well reaction plates using an Apricot automation workstation. WCDD301 (100 μM) or propantheline bromide (100 μM, as a positive control) was added (2 μL/well) to sets of wells assigned to blank or time points (T0, T10, T30, T60, and T120 minutes) and incubated at 37°C. At each time point, the reaction was stopped by adding stop solution (500 μL; a mixture of 200 ng/mL of tolbutamide and labetalol in acetonitrile), mixed thoroughly, sealed, shaken (20 minutes), and centrifuged (1,750g, 4°C, 20 minutes). A total of 150 μL of the supernatant from each well of the reaction plate was transferred to its corresponding bioanalysis plate for LC-MS/MS analysis. The remaining level (%) of the WCDD301 was calculated using the following equation: remaining (%) = (PAR at each time point/PAR at T0) × 100. PAR stands for the peak area ratio of the WCDD301 versus internal standard.

[6] = Plasma stability assay, CD-1 mouse plasma; type: in vitro ADME; details: for Ln (% Remaining): mouse plasma, 37°C, Figure 5B
Experimental: as §4

O=C(O)Cc1ccccc1Nc1c(Cl)cccc1Cl [Diclofenac]
Intrinsic microsomal clearance ([1]; human): 313.9 µL/min/mg
Remaining in hepatic microsomes (100 at 0 min) ([1]; 5 min): 48.7
Remaining in hepatic microsomes (100 at 0 min) ([1]; 15 min): 9.3
Remaining in hepatic microsomes (100 at 0 min) ([1]; 30 min): 0.9
half-life at 1 µM ([1]; human, liver microsomes): 4.4 min
Hepatic clearance ([1]; human): 282.5 mL/min/kg
Remaining in hepatic microsomes (100 at 0 min) ([2]; 5 min): 85.5
Remaining in hepatic microsomes (100 at 0 min) ([2]; 15 min): 77.8
Remaining in hepatic microsomes (100 at 0 min) ([2]; 30 min): 58.6
Remaining in hepatic microsomes (100 at 0 min) ([2]; 45 min): 52.8
Remaining in hepatic microsomes (100 at 0 min) ([2]; 60 min): 39.3
Hepatic clearance [2]: 115.5 mL/min/kg

CC[C@H]1CN2CC[C@]3(C(=O)Nc4ccccc43)[C@@H]2C[C@@H]1/C(=C\OC)C(=O)OC [rhyncophylline, reference compound]
Secretion of glucagon ([3]; Glucose (1 mM), Figure 1H): 0.87 and 0.81 and 0.85 and 0.79 and 0.82
Secretion of glucagon ([3]; Glucose (11 mM), Figure 1H): 0.41 and 0.5 and 0.38 and 0.45 and 0.4
Effect of EphA4 inhibition on suppression of glucagon secretion ([3]; competitive inhibitor of EphA4, Figure 1H): abolished the suppressive effect of both Ephrin-A5 and 1.5 μM WCDD301 on glucagon secretion

C[C@]12CC[C@H]3[C@@H](CCC4=CC(=O)CC[C@@]43C)[C@@H]1CC[C@@H]2O [Testosterone]
Intrinsic microsomal clearance ([1]; human): 95.6 µL/min/mg
Microsomal half-life ([1]; human): 14.5 min
Remaining in hepatic microsomes (100 at 0 min) ([1]; 5 min): 78.1
Remaining in hepatic microsomes (100 at 0 min) ([1]; 15 min): 33
Remaining in hepatic microsomes (100 at 0 min) ([1]; 30 min): 12.9
Remaining in hepatic microsomes (100 at 0 min) ([1]; 45 min): 8.4
Remaining in hepatic microsomes (100 at 0 min) ([1]; 60 min): 6.4
Hepatic clearance ([1]; human): 86 mL/min/kg
half-life at 1 µM ([2]; CD-1, mouse, liver microsomes): 5.4 min
microsomal CLint at 1 µM ([2]; CD-1, mouse, liver microsomes, read-out: Intrinsic microsomal clearance): 257 µL/min/mg
Remaining in hepatic microsomes (100 at 0 min) ([2]; 5 min): 43.1
Remaining in hepatic microsomes (100 at 0 min) ([2]; 15 min): 11.2
Remaining in hepatic microsomes (100 at 0 min) ([2]; 30 min): 2
Hepatic clearance [2]: 1018.5 mL/min/kg

N=C(N)NCCC[C@H](N)C(=O)O [Arginine, reference compound]
Effect on glucagon secretion ([3]; Arginine 25 mM alone, Supplemental Figure 2): significantly increased glucagon secretion

COc1cc2nc(N3CCN(C(=O)C4COc5ccccc5O4)CC3)nc(N)c2cc1OC (centres unmarked) [Doxazosin, reference compound]
Effect on glucagon secretion ([3]; mouse α cells, range of concentrations, Supplemental Figure 1B-E): increased glucagon secretion
Effect on glucagon secretion [4]: increased glucagon secretion

CC(C)[N+](C)(CCOC(=O)C1c2ccccc2Oc2ccccc21)C(C)C [Propantheline, propantheline bromide]
half-life at 2 µM ([5]; both sexes, human, plasma): 9.8 min
Ln (% Remaining) ([5]; 10 min): -0.39
Ln (% Remaining) ([5]; 30 min): -2.06
Ln (% Remaining) ([5]; 60 min): -4.13
half-life at 2 µM ([6]; both sexes, CD-1, mouse, plasma): 34.3 min
Ln (% Remaining) ([6]; 10 min): -0.31
Ln (% Remaining) ([6]; 30 min): -0.9
Ln (% Remaining) ([6]; 60 min): -1.58
Ln (% Remaining) ([6]; 120 min): -2.45
